Molecules are shown by their SMILES. Entries after “also recorded” stand apart in the source; their conditions may differ.

One experiment has as its system CA3 pyramidal cells. In words: Single GABAA channel recordings of driving force of GABA (DFGABA) in hippocampal slices, drug applied to slice. The class given is cell-based, mouse. As for the experimental part:
Mice lacking Fmr1 (referred to as Fmr1^−/−) were bred in our animal facility. […] For all experiments, Fmr1^−/− mice were used with wild-type littermates as a control group. The offspring were used for experiments at E18, P0, P2, P4, P7, P9, P15 and P30. Experiments were carried out on offspring of either sex and in a blind manner at E18 and P0.
Experiments were performed on fetuses and neonatal wild type and Fragile X mice from the embryonic day […] to the postnatal day P38 (term is E21). All of the research was performed in compliance with the national guidelines on human care and use of laboratory animals and approved by INSERM.
Hippocampal slices (300-500 μm thick) were prepared using a Microm tissue slicer (International GmbH, Germany) as described previously (Tyzio et al., 2006, 2008). Slices were kept in oxygenated (95% O2/5% CO2) artificial cerebrospinal fluid (ACSF) of the following composition (in mM): NaCl 126, KCl 3.5, CaCl2 2.0, MgCl2 1.3, NaHCO3 25, NaH2PO4 1.2 and glucose 11 (pH 7.4) at room temperature (20-22° C.) at least 1 hour before use.
For recordings, slices were placed into a conventional fully submerged chamber superfused with ACSF at a rate of 2-3 ml/min at room temperature. Patch clamp recordings from visually identified CA3 pyramidal cells in cell-attached configuration were performed using EPC-10 amplifier (HEKA Elektronik Dr. Schulze GmbH, Lambrecht/Pfalz, Germany). Patch pipette solution for recordings of single GABAA channels contained (in mM): NaCl 120, KCl 5, TEA-Cl 20, 4-aminopyridine 5, CaCl2 0.1, MgCl2 10, glucose 10, Hepes-NaOH 10 buffered to pH 7.2-7.3 and GABA 2 μM. Analysis of currents through single channels and current-voltage relationships were performed using Clampfit 9.2 (Axon Instruments, Union City, Calif.). Recordings were digitized (10 kHz) online with Digidata-1200 interface card (Axon Instruments, Union City, Calif.) and analyzed offline with Axon package, MiniAnalysis (S (Synaptsoft, Decatur, Ga.), and Origin (Microcal Software, Northampton, Mass.). […]

Another experiment relates to hippocampal slices. Kind of experiment: Extracellular field potentials / spike frequency in hippocampal slices at P15 on isoguvacine. The experiment is classed as cell-based, mouse. The source says: Recording were made in the hippocampal slices using tungsten wire electrodes (diameter: 50 μm, California Fine Wire, Grover Beach, Calif.) and a low-noise multichannel DAM-8A amplifiers (WPI, GB; […]; gain: ×1000). The signals were digitized using an analogue-to-digital converter (Digidata 1440A, Axon Instruments, USA). pCLAMP 10.1, Clampfit 10.1 (Axon Instruments, USA), MiniAnalysis 6.03 (Synaptosoft, Decatur, Calif.) and Origin 7.5 (Microcal Software, USA) programs were used for the acquisition and analysis of the synaptic activities. Sampling interval per signal was 100 microseconds (10 kHz).
To test whether depolarizing actions of GABA were associated with neuronal excitation, the effect of the GABAA receptor agonist isoguvacine was tested. […] To test whether maternal treatment with bumetanide before delivery switches the action of GABA from excitatory to inhibitory in offsprings at P15, pregnant females were treated orally 1 day before delivery with bumetanide (2-2.5 mg/kg in drinking water) and juvenile offspring neurons recorded at P15. […] Therefore, excitatory actions of GABA during delivery produce long term deleterious effects on electrophysiological parameters of FXS juvenile neurons. In FXS mice, GABAergic inputs are excitatory and contribute to hyperexcitability of the network. Bumetanide decreases [Cl^−]i and consequently reduces contribution of excitatory GABAergic inputs in the overall network activity.

For experiment [1], the system named is hippocampal CA3 pyramidal neurons. In words: Whole-cell recordings of spontaneous excitatory postsynaptic currents (sEPSCs) at P15 after maternal pretreatment. The class given is in vivo, mouse. The conditions noted are these: FXS offspring P15, maternal pretreatment, −70 mV. The procedure:
Standard whole-cell recordings were performed in coronal neocortical rat or mouse brain slices at room temperature (20-22° C.) from the soma of hippocampal CA3 neurons using an EPC-10 (HEKA Elektronik, Germany) amplifier and filtered at 3-10 kHz. The internal solution contained (in mM): 130 K-gluconate, 10 Na-gluconate, 4 NaCl, 4 MgATP, 4 phosphocreatine, 10 HEPES, and 0.3 GTP (pH 7.3 with KOH). Biocytin (final concentration 0.3-0.5%) was added to the pipette solution to label the neurons from which recordings were obtained. Neurons were visualized by using infrared DIC video microscopy. Spontaneous postsynaptic currents were recorded for […] at the reversal potentials for GABAergic currents (-70 mV). […] Stored data were analyzed using the Mini Analysis 6.0.3 (Synaptosoft Inc., […].) and Origin (MicroCal, Northampton, Mass.) software. […] Data are expressed as mean±S.E.M. To test whether depolarizing actions of GABA were associated with neuronal excitation, the effect of the GABAA receptor agonist isoguvacine was tested. […] To test whether maternal treatment with bumetanide before delivery switches the action of GABA from excitatory to inhibitory in offsprings at P15, pregnant females were treated orally 1 day before delivery with bumetanide (2-2.5 mg/kg in drinking water) and juvenile offspring neurons recorded at P15. […]

For `CCCCNc1cc(C(=O)O)cc(S(N)(=O)=O)c1Oc1ccccc1` [bumetanide], the “Effect on DFGABA (in words)” value is recorded as “shift it to hyperpolarization; also recorded: fully blocked the depolarising DFGABA” in the experiment with CA3 pyramidal cells (FXS neurons at P0 (birth), oxytocin 1 μM) and “increases hyperpolarization” with CA3 pyramidal cells (wild type pyramidal cells at P0). Moreover, the normalized spike frequency in the experiment on hippocampal slices (FXS mice pretreated with bumetanide, P15, on isoguvacine (10 μM)) turned out to be 80.8±8.2%. In the experiment on hippocampal slices (FXS offspring P15, maternal pretreatment), the “Effect on excitatory actions of isoguvacine (in words)” value was “suppressed the excitatory actions”. For the same compound, in experiment [1], the “ongoing activity and frequency of glutamatergic sEPSCs (in words)” value is recorded as “significantly reduced”.

Values taken from patent publication US10201507B2, “Modulators of intracellular chloride concentration for treating fragile X syndrome” (NEUROCHLORE, priority 2012, dated 2019).
